In patent EP1157024B1, “ACETYLENIC ORTHO-SULFONAMIDO AND PHOSPHINIC ACID AMIDO BICYCLIC HETEROARYL HYDROXAMIC ACIDS AS TACE INHIBITORS” (American Cyanamid Company, priority 1999, dated 2000):
Where two headings read alike, the source gives them in different places.

What was measured:
MMP-13 = MMP-13 (Homo sapiens, UniProt P45452); assay: MMP-13 inhibition (thiopeptide or fluorescent peptide substrate); type: biochemical
Procedure: (§1) The enzyme activity is measured by the rate of the color increase. The thiopeptide substrate is made up fresh as a 20 mM stock in 100% DMSO and the DTNB is dissolved in 100% DMSO as a 100 mM stock and stored in the dark at room temperature. Both the substrate and DTNB are diluted together to 1 mM with substrate buffer (50 mM HEPES pH 7.5, 5 mM CaCl2) before use. The stock of enzyme is diluted with buffer (50 mM HEPES, pH 7.5, 5 mM CaCl2, 0.02% Brij) to the desired final concentration.
(§2) Alternatively, a fluorescent peptide substrate is used. In this test procedure, the peptide substrate contains a fluorescent group and a quenching group. Upon cleavage of the substrate by an MMP, the fluorescence that is generated is quantitated on the fluorescence plate reader. The assay is run in HCBC assay buffer (50mM HEPES, pH 7.0, 5 mM Ca^+2, 0.02% Brij, 0.5% Cysteine), with human recombinant MMP-1, MMP-9, or MMP-13. The substrate is dissolved in methanol and stored frozen in 1 mM aliquots. For the assay, substrate and enzymes are diluted in HCBC buffer to the desired concentrations. Compounds are added to the 96 well plate containing enzyme and the reaction is started by the addition of substrate.
(§3) For either the thiopeptide or fluorescent peptide test procedures, the slope of the line is calculated and represents the reaction rate. The linearity of the reaction rate is confirmed (r^2 >0.85).

MMP-9 = MMP-9 (Homo sapiens, UniProt P14780); assay: MMP-9 inhibition (thiopeptide or fluorescent peptide substrate); type: biochemical
Procedure: as §1, §2, §3

THP-1 cells = assay: THP-1 soluble protein assay (human monocytic THP-1 cell differentiation assay); type: cell-based; details: read-out: THP % inhibition at 3µM, LPS-stimulated THP-1 cells
From the text: Mitogenic stimulation of THP-1 cells cause differentiation into macrophage like cells with concomitant secretion of tumor necrosis factor (TNF-•) and TNF receptor (TNF-R p75/80 and TNF-R p55/60) and Interleukin-8 (IL-8), among other proteins. In addition, non-stimulated THP-1 cells shed both the p75/80 and the p55/60 receptors over time. […] THP-1 cells (from ATCC) are a human monocytic cell line which were obtained from the peripheral blood of a person with acute monocytic leukemia. They can be grown in culture and differentiated into macrophage like cells by stimulation with mitogens. For the assay, THP-1 cells are seeded from an ATCC stock which was previously grown and frozen back at 5 x 10^6/ml/vial. […] Each vial of cells are cultured for about two weeks prior to being used for an assay and then are used for only 4 to 6 weeks to screen compounds. Cells are subcultured on Mondays and Thursdays to a concentration of 1 x 10^5/ml. […] At the same time, […] of drug, vehicle or THP-1 media is plated in appropriate wells to give a final volume of 1.2 ml/well. […] Cell exposure to DMSO was limited to 0.1 % final concentration. Positive control wells were included in the experiment which had mitogen added but no drug. Vehicle control wells were included as well, which were identical to the positive control wells, except that DMSO was added to give a final concentration of 0.083%. Negative control wells were included in the experiment which had vehicle but no mitogen or drug added to the cells. Compounds can be evaluated for their effect on basal (non-stimulated) shedding of the receptors by replacing the LPS with […] of THP-1 media. Plates are placed into an incubator set at 5% CO2 and at 37 °C. After 4 hours of incubation, […] of tissue culture supernatant (TCS) is removed for use in an TNF-α ELISA. Following 24 hours of incubation, […] of TCS is removed and used for analysis in TNF-R p75/80, TNF-R p55/60 and IL-8 ELISAs. In addition, at the 24 hours timepoint, and the cells for each treatment group are collected by resuspension in 500 µl/well of THP-1 media and transferred into a FACS tube. Two ml/tube of a 0.5 mg/ml stock of propidium iodide (PI) (Boerhinger Mannheim cat. # 1348639) is added. The samples are run on a Becton Dickinson FaxCaliber FLOW cytometry machine and the amount of dye taken up by each cell is measured in the high red wavelength (FL3). Only cells with compromised membranes (dead or dying) can take up PI. The percent of live cells is calculated by the number of cells not stained with PI, divided by the total number of cells in the sample. The viability values calculated for the drug treated groups were compared to the viability value calculated for the vehicle treated mitogen stimulated group ("vehicle positive control") to determine the "percent change from control". This "percent change from control" value is an indicator of drug toxicity. The quantity of soluble TNF-α, TNF-R p75/80 and TNF-R p55/60 and IL-8 in the TCS of the THP-1 cell cultures are obtained with commercially available ELISAs from R&D Systems, by extrapolation from a standard curve generated with kit standards. The number of cells that either take up or exclude PI are measured by the FLOW cytometry machine and visualized by histograms using commercially available Cytologic software for each treatment group including all controls. […]

[1] = target: TNF-α converting enzyme (TACE) (Homo sapiens, UniProt P78536); assay: TACE inhibition (fluorescent peptidyl substrate); type: biochemical
Chain of TNF-α converting enzyme (TACE) (P78536 215-824, species assumed): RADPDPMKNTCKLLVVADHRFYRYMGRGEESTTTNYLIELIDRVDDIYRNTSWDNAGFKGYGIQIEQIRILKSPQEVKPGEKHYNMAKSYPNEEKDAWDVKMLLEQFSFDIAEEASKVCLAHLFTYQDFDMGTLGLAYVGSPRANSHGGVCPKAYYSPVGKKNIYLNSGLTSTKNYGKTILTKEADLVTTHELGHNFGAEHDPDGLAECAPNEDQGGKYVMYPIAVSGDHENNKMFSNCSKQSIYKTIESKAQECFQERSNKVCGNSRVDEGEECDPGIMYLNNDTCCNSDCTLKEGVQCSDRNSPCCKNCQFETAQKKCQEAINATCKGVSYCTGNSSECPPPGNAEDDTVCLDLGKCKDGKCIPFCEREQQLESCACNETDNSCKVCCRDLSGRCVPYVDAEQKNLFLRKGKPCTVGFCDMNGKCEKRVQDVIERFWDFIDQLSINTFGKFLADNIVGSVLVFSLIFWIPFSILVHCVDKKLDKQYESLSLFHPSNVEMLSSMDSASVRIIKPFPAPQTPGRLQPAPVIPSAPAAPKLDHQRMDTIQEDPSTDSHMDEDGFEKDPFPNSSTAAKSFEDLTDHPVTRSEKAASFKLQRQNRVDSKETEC
Procedure: Using 96-well black microtiter plates, each well receives a solution composed of 10 µL TACE (final concentration 1µg/mL), 70µL Tris buffer, pH 7.4 containing 10% glycerol (final concentration 10 mM), and 10 µL of test compound solution in DMSO (final concentration 1µM, DMSO concentration <1%) and incubated for 10 minutes at room temperature.
The reaction is read (excitation 340 nm, emission 420 nm) for 10 min. and the increase in fluorescence over time is plotted as a linear line. The slope of the line is calculated and represents the reaction rate.
The linearity of the reaction rate is confirmed (r^2 >0.85). The mean (x±em) of the control rate is calculated and compared for statistical significance (p<0.05) with drug-treated rates using Dunnett's multiple comparison test.

Chain of MMP-9 (P14780 94-707): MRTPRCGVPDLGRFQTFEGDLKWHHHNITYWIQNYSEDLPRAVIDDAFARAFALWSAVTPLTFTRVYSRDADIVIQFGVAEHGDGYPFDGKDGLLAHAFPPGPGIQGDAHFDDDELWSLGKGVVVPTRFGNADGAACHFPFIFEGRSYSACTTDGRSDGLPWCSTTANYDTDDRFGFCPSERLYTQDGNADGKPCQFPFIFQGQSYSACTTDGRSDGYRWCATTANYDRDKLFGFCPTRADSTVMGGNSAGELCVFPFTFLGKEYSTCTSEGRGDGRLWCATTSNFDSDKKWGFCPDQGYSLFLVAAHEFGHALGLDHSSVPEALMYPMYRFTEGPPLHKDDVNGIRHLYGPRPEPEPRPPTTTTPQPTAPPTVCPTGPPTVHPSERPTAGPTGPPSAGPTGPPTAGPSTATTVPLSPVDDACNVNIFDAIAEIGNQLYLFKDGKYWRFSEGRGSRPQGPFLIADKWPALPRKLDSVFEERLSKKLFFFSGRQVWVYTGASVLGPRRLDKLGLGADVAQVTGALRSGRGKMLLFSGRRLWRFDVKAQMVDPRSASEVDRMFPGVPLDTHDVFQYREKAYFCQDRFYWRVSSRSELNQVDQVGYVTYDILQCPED

Row | Compound | IC50 (MMP-13; read-out: MMP-13 IC50) [nM] | IC50 (MMP-9) [nM] | inhibition at 3 µM (THP-1 cells) [%] | IC50 [1] [nM] | IC50 (MMP-13) [nM] | IC50 ([1]; read-out: TACE IC50) [nM]
1 | CC#CCOc1ccc(S(=O)(=O)N(C)c2c(C(=O)NO)cnc3c(OC)cccc23)cc1 [Example 11, 4-[(4-But-2-ynyloxy-benzenesulfonyl)-methyl-amino]-8-methoxy-quinoline-3-carboxylic acid hydroxyamide] | 9.2 | 33 | 58 | 17 | – | –
2 | CC#CCOc1ccc(S(=O)(=O)N(C)c2c(C(=O)NO)cnc3snc(C)c23)cc1 [Example 13, 4-[(4-But-2-ynyloxy-benzenesulfonyl)-methyl-amino]-3-methyl-isothiazolo[5,4-b]pyridine-5-carboxylic acid hydroxyamide] | – | 95 | 42 | 14 | 34 | –
3 | CC#CCOc1ccc(S(=O)(=O)N(C)c2c(C(=O)NO)cnc3c2c(C)nn3C)cc1 [Example 7, 4-[(4-But-2-ynyloxy-benzenesulfonyl)-methyl-amino]-1,3-dimethyl-1H-pyrazolo[3,4-b]pyridine-5-carboxylic acid hydroxyamide] | – | 116 | 60 | 30 | – | –
4 | CC#CCOc1ccc(S(=O)(=O)N(C)c2c(C(=O)NO)cnc3onc(C)c23)cc1 [Example 9, 4-[(4-But-2-ynyloxy-benzenesulfonyl)-methyl-amino]-3-methyl-isoxazolo[5,4-b]pyridine-5-carboxylic acid hydroxyamide] | – | 244 | 57 | 5.9 | 150 | –
5 | CC#CCOc1ccc(S(=O)(=O)N(C)c2c(C(=O)NO)cnc3c(Br)cccc23)cc1 [Example 99, 8-Bromo-4-[{[4-(2-butynyloxy)phenyl]sulfonyl} (methyl)amino]-N-hydroxy-3-quinolinecarboxamide] | 27 | – | 32 | – | – | 82
